Measured values reported in ChEMBL document CHEMBL4665812, “Targeting Her2-insYVMA with Covalent Inhibitors-A Focused Compound Screening and Structure-Based Design Approach” (J Med Chem, 2020).
Converted amounts (≈) assume the structure as drawn. The source made the active and inactive calls. No cut-off for these calls is given here.

Columns and labels:
[1] = Apparent permeability across apical side to basolateral side in human Caco-2 cells at 5 uM after 2 hrs by transwell assay; type: ADME, cell-based; conditions: read-out: permeability
[2] = Inhibition of C-terminal His6-tagged HER2-A775_G776insYVMA mutant (703 to 1029 residues) (unknown origin) expressed in Sf9 insect cells assessed as Kinact using TK as substrate measured up to 2 to 40 mins by fluorescence assay; conditions: Homo sapiens, time min 2-40
[3] = molecular target: Epidermal growth factor receptor (Homo sapiens, UniProt P00533); experiment: Inhibition of human N-terminal GST-tagged EGFR (669 to 1210 residues) expressed in baculovirus infected Sf9 insect cells using TK as substrate preincubated for 30 mins followed by substrate addition and measured after 25 mins by HTRF assay
[4] = Ratio of apparent permeability across basolateral to apical over apical to basolateral side in human Caco2 cells at 5 uM after 2 hrs by transwell assay; type: ADME, cell-based; conditions: Caco-2
[5] = Apparent permeability across basolateral side to apical side in human Caco-2 cells at 5 uM after 2 hrs by transwell assay; type: ADME, cell-based; conditions: read-out: permeability
[6] = Inhibition of HER2-A775_G776insYVMA mutant (unknown origin) expressed in mouse BaF3 cells assessed as reduction in HER2 induced cell viability after 96 hrs by CellTiter-Glo assay; type: cell-based; conditions: BaF3, 96 h
[7] = molecular target: T1, Receptor tyrosine-protein kinase erbB-2 (Homo sapiens, UniProt P04626); experiment: Inhibition of HER2 in human H1781 cells assessed as reduction in HER2 phosphorylation at Y1248 residues at 100 to 500 nM after 1 hrs by Western blot analysis; type: cell-based; conditions: dose nM 100-500, time 1.0 hrs
[8] = molecular target: Epidermal growth factor receptor (Homo sapiens, UniProt P00533, L858R); experiment: Inhibition of human N-terminal GST-tagged EGFR L858R mutant (669 to 1210 residues) expressed in baculovirus infected Sf9 insect cells using TK as substrate preincubated for 30 mins followed by substrate addition and measured after 15 mins by HTRF assay
[9] = molecular target: Epidermal growth factor receptor (Homo sapiens, UniProt P00533, L858R/T790M); experiment: Inhibition of human N-terminal GST-tagged EGFR L858R/T790M mutant (669 to 1210 residues) expressed in baculovirus infected Sf9 insect cells using TK as substrate preincubated for 30 mins followed by substrate addition and measured after 20 mins by HTRF assay
[10] = Intrinsic clearance in mouse liver microsomes at 1 uM measured up to 60 mins by LC-MS analysis; type: ADME, Microsome; conditions: read-out: CLH
[11] = molecular target: T1, Receptor tyrosine-protein kinase erbB-2; experiment: Inhibition of C-terminal His6-tagged HER2 (703 to 1029 residues) (unknown origin) expressed in Sf9 insect cells using TK as substrate preincubated for 30 mins followed by substrate addition and measured after 60 mins in presence of XL665-labeled streptavidin by HTRF assay
[12] = Kinetic solubility of compound in HEPES buffer a pH 7.4 at 500 uM after 90 mins; type: physicochemical; conditions: read-out: Kinetic_solubility
cells = type: cell-based; conditions: Homo sapiens, NCI-H1781, 96 h
Description: Inhibition of HER2-G776delinsVC mutant (unknown origin) expressed in human H1781 cells assessed as reduction in HER2 induced cell viability after 96 hrs by CellTiter-Glo assay

[13] = Intrinsic clearance in human liver microsomes at 1 uM measured up to 50 mins by LC-MS analysis; type: ADME, Microsome; conditions: read-out: CLH
[14] = molecular target: T1, Receptor tyrosine-protein kinase erbB-2; experiment: Inhibition of HER2 in human H1781 cells assessed as reduction in HER2 phosphorylation at Y1221/1222 residues at 100 to 500 nM after 1 hrs by Western blot analysis; type: cell-based; conditions: dose nM 100-500, time 1.0 hrs
[15] = Stability of compound in human plasma assessed as parent compound remaining at 5 uM measured for 1 hr by LC-MS analysis; type: ADME, cell-free; conditions: read-out: Stabilty
[16] = Inhibition of C-terminal His6-tagged HER2-A775_G776insYVMA mutant (703 to 1029 residues) (unknown origin) expressed in Sf9 insect cells using TK as substrate measured up to 2 to 40 mins by fluorescence assay; design: species or system Homo sapiens
[17] = Solubility of compound in aqueous buffer at pH 7.4 after 120 mins by turbidometric assay; type: physicochemical
[18] = Stability of compound in mouse plasma assessed as parent compound remaining at 5 uM measured for 1 hr by LC-MS analysis; type: ADME, cell-free; conditions: read-out: Stabilty
[19] = Intrinsic clearance in human liver microsomes at 3 uM measured up to 50 mins by LC-MS analysis; type: ADME, Microsome; conditions: read-out: CLH
[20] = molecular target: T1, Receptor tyrosine-protein kinase erbB-2; experiment: Inhibition of HER2 in human H1781 cells assessed as reduction in HER2 phosphorylation at Y1221/1222 residues after 1 hrs by Western blot analysis; type: cell-based; conditions: dose nM 10-500, time 1.0 hrs
[21] = molecular target: Serine/threonine-protein kinase AKT (Homo sapiens) (UniProt P31751+Q9Y243+P31749); experiment: Inhibition of AKT phosphorylation at S473 residues in human H1781 cells after 1 hrs by Western blot analysis; type: cell-based; conditions: dose nM 10-500, time 1.0 hrs
[22] = Intrinsic clearance in mouse liver microsomes at 3 uM measured up to 60 mins by LC-MS analysis; type: ADME, Microsome; conditions: read-out: CLH
Homo sapiens [23] = organism: Homo sapiens; experiment: Inhibition of MAPK phosphorylation at T202/204 residues in human H1781 cells after 1 hrs by Western blot analysis; type: cell-based; conditions: dose nM 10-500, time 1.0 hrs
[24] = molecular target: T1, Receptor tyrosine-protein kinase erbB-2; experiment: Inhibition of HER2 in human H1781 cells assessed as reduction in HER2 phosphorylation at Y1248 residues after 1 hrs by Western blot analysis; type: cell-based; conditions: dose nM 10-500, time 1.0 hrs
Homo sapiens [25] = organism: Homo sapiens; experiment: Inhibition of S6 phosphorylation at T202/204 residues in human H1781 cells after 1 hrs by Western blot analysis; type: cell-based; conditions: dose nM 10-500, time 1.0 hrs

Chain of Epidermal growth factor receptor (Homo sapiens, UniProt P00533, L858R) (P00533 25-1210 L858R limits assumed): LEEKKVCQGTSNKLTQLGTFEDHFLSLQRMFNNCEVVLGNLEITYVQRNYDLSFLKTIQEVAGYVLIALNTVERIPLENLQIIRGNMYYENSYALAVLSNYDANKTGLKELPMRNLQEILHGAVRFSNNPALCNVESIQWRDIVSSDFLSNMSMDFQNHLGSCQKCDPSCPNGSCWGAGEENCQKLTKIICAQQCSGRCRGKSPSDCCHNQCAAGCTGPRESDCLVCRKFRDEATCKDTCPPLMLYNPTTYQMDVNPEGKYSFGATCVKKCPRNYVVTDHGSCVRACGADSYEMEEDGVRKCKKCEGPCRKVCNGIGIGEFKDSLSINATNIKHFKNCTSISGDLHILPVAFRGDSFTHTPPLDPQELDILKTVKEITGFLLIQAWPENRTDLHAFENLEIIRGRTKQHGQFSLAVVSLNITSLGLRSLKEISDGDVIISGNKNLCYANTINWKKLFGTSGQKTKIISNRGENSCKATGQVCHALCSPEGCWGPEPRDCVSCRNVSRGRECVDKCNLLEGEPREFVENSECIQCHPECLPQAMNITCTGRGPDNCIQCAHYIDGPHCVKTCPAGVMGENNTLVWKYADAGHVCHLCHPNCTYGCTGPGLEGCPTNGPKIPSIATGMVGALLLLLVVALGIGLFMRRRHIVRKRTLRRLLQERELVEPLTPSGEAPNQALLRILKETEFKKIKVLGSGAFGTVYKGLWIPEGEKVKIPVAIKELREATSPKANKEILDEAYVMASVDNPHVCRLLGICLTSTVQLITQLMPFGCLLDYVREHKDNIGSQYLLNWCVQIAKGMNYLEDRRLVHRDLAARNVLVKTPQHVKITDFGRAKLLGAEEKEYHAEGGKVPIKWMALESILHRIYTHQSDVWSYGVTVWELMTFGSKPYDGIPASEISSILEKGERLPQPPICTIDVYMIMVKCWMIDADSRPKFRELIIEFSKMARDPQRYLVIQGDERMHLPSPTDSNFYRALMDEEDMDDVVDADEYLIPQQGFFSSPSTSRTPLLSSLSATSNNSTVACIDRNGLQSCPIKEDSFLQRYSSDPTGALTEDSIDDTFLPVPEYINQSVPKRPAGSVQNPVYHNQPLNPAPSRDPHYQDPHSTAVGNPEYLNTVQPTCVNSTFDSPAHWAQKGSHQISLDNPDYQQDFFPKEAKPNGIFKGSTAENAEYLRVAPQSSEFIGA
T1 sequence (P04626 whole entry, the tested form may be a part): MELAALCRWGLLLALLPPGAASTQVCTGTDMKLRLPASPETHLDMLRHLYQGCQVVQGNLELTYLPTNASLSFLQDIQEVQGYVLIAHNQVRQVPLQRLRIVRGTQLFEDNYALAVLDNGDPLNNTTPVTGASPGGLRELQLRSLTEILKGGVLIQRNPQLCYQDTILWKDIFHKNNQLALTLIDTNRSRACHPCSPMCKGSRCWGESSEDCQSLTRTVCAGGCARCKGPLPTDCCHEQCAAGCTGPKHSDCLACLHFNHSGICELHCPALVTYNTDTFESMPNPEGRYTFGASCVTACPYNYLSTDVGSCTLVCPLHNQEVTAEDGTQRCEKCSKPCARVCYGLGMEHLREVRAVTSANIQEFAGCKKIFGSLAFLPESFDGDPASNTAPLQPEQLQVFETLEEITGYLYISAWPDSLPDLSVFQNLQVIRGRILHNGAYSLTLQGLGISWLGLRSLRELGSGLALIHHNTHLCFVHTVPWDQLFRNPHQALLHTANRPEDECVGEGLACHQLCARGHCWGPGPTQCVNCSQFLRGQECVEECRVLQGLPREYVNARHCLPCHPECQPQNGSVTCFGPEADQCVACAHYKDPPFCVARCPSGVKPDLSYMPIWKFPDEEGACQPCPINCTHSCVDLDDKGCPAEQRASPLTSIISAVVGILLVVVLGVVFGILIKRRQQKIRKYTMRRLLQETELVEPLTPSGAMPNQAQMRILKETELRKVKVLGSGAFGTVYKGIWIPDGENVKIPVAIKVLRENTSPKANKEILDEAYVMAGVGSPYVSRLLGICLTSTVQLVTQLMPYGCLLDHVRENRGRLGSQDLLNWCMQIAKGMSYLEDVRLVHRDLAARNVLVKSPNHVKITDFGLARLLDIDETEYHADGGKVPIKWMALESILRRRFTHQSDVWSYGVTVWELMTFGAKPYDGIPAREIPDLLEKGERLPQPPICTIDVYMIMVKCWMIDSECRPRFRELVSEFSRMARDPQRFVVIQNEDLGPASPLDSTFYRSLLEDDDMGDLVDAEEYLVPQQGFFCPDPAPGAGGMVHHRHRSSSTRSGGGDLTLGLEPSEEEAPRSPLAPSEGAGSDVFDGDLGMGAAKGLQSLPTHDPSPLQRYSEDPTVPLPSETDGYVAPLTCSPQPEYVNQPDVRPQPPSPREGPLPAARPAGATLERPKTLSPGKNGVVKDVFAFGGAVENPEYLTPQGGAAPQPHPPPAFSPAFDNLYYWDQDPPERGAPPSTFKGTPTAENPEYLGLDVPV
Chain of Epidermal growth factor receptor (Homo sapiens, UniProt P00533) (P00533 whole entry, the tested form may be a part): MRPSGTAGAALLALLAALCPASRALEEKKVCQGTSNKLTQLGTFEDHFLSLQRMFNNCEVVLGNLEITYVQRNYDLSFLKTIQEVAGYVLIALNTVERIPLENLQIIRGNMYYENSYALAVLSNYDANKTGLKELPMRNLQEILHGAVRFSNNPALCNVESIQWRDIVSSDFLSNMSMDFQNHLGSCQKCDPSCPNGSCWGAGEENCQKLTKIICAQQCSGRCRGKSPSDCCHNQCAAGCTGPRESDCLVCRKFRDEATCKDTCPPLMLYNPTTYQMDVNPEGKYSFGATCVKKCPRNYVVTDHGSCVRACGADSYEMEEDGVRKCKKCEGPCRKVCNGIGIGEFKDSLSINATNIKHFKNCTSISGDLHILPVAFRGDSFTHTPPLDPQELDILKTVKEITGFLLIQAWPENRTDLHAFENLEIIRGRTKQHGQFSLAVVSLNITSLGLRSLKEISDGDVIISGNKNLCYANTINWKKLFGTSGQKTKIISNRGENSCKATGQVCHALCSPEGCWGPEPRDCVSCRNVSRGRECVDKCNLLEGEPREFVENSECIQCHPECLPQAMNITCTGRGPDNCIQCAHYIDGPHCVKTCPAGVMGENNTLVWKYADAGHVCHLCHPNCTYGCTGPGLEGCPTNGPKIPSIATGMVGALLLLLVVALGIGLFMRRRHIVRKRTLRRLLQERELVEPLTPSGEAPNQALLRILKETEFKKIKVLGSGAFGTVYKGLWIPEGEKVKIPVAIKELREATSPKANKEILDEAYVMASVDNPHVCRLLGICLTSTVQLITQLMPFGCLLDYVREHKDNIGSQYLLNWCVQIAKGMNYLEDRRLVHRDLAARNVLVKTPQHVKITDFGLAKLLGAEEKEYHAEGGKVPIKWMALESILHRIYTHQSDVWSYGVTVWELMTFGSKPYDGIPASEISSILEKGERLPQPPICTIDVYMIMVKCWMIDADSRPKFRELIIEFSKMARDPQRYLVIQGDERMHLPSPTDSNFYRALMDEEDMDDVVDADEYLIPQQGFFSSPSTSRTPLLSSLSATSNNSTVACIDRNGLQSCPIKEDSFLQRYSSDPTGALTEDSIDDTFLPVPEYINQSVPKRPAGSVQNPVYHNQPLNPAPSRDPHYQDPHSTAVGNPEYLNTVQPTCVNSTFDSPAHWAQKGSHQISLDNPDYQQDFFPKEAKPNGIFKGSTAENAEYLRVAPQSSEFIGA
Chain of Serine/threonine-protein kinase AKT (Homo sapiens) (P31749 whole entry, looked up): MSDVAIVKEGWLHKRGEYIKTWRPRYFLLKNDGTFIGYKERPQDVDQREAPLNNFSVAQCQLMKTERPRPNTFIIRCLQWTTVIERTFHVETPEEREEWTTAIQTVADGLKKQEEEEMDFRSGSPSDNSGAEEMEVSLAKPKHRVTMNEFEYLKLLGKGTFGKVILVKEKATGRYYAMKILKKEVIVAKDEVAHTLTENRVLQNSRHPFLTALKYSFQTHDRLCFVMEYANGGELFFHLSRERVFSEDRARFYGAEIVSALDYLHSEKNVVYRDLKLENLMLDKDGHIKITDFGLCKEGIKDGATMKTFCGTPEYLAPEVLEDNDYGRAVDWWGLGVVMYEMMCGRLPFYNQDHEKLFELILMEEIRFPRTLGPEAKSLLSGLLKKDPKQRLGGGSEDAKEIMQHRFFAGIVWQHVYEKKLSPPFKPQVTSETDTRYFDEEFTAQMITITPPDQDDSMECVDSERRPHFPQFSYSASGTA
Chain of Serine/threonine-protein kinase AKT (Homo sapiens) (P31751 whole entry, looked up): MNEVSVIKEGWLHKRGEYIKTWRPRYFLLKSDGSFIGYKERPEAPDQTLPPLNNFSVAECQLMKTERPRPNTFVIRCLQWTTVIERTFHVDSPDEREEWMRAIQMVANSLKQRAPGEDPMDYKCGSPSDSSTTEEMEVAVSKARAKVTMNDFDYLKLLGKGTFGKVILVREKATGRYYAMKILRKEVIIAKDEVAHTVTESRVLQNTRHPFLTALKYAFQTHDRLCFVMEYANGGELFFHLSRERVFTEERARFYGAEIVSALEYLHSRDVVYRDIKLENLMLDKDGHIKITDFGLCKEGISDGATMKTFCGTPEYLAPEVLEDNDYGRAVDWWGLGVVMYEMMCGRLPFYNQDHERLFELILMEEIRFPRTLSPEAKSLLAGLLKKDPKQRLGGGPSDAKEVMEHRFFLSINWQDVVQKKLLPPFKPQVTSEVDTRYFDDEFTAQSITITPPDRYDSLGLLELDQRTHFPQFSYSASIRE
Chain of Serine/threonine-protein kinase AKT (Homo sapiens) (Q9Y243 whole entry, looked up): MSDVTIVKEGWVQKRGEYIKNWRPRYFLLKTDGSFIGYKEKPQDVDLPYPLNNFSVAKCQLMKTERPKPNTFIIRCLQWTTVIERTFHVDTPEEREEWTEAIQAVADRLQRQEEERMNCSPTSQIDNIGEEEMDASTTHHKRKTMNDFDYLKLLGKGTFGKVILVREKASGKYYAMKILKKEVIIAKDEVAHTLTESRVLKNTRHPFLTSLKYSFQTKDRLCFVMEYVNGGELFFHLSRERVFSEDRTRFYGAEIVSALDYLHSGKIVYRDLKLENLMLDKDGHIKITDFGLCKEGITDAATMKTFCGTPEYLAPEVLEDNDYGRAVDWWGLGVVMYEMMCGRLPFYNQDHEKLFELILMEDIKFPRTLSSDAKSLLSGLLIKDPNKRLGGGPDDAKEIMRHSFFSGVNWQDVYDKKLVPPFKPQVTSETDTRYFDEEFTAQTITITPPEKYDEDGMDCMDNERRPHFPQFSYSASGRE

Row | Compound | Papp A→B at 2 h, 5 µM [1] [×10⁻⁶ cm/s] | Kinact [2] [min⁻¹] | IC50 [3] [nM] | efflux ratio at 2 h, 5 µM [4] | Papp B→A at 2 h, 5 µM [5] [×10⁻⁶ cm/s] | IC50 [6] [nM] | inhibition [7] | IC50 [8] [nM] | IC50 [9] [nM] | microsomal CLint at 1 µM [10] [µL/min/mg] | IC50 [11] [nM] | solubility kinetic at 1.5 h, 500 µM [12] [µM] | IC50 (cells) [nM] | microsomal CLint at 1 µM [13] [µL/min/mg] | inhibition [14] | remaining at 1 h, 5 µM [15] [%] | Ki [16] [nM] | solubility kinetic at 2 h [17] [µM] | remaining at 1 h, 5 µM [18] [%] | inhibition [20] | other results
1 | C=CC(=O)Nc1cc(-c2c[nH]c3ncnc(Nc4ccc(OCc5ccccn5)c(Cl)c4)c23)ccc1OCCN(C)C | 2.1 | 0.212 | 0.09 | 11.4 | 23.9 | 120 | Active | 0.1 | 2 | 866 | 15 | 60.6 (≈ 35.4 µg/mL) | 164 | 64.2 | Active | 74.4 | 49 | 100 (≈ 58.4 µg/mL) | 0.8 | – | –
2 | C=CC(=O)Nc1cccc(-c2c[nH]c3ncnc(Nc4ccc(OCc5ccccn5)c(Cl)c4)c23)c1 | 1.9 | 0.136 | 0.08 | 0.3 | 0.6 | 83 | – | 0.1 | 3.9 | – | 11 | – | 161 | – | – | 79.8 | 54 | 30 (≈ 14.9 µg/mL) | 49 | Dose-dependent effect | microsomal CLint at 3 µM [19]: 27.7 µL/min/mg; inhibition [21]: Dose-dependent effect; microsomal CLint at 3 µM [22]: 125 µL/min/mg; inhibition (Homo sapiens [23]): Dose-dependent effect; inhibition [24]: Dose-dependent effect; inhibition (Homo sapiens [25]): Dose-dependent effect
3 | C=CC(=O)Nc1cccc(-c2c[nH]c3ncnc(Nc4ccc(CN5C(=O)c6ccccc6C5=O)cc4)c23)c1 | 0.5 | 0.132 | 0.4 | 0.2 | 0.1 | 381 | – | 0.2 | 33 | 770 | 11 | 8.3 (≈ 4.27 µg/mL) | 419 | 96.3 | – | 78.1 | 143 | 30 (≈ 15.4 µg/mL) | 81.3 | Dose-dependent effect | inhibition [21]: Dose-dependent effect; inhibition (Homo sapiens [23]): Dose-dependent effect; inhibition [24]: Dose-dependent effect; inhibition (Homo sapiens [25]): Dose-dependent effect
4 | C=CC(=O)Nc1cc(-c2c[nH]c3ncnc(Nc4ccc5c(cnn5Cc5ccccc5)c4)c23)ccc1OCCO | 1.2 | 0.138 | 0.07 | 4.5 | 5.2 | 159 | Active | 0.1 | 6 | 603 | 14 | 16.8 (≈ 9.17 µg/mL) | 508 | 66 | Active | 90.9 | 67 | 30 (≈ 16.4 µg/mL) | 88.4 | – | –
